In patent publication US11919901B2 (Syndax Pharmaceuticals, Inc., priority 2021, dated 2024):

What follows are compounds tested on MV4-11 cells (assay: Cell proliferation assay MV4;11 (CellTiter-Glo, 72 hours)). Conditions: Homo sapiens, MV4-11, 72 h, read-out: MV4; 11 IC50 (nM).
Format: cell-based
Experimental: Compounds were evaluated for its capacity to inhibit the proliferation of the MLLr leukemia cell line MV4-11 that harbors an MLL1-AF4 fusion protein. MV4-11 cells were cultured for 72 hours with limiting dilutions of compounds and viability was measured using CellTiter-Glo.
Compounds were dissolved to obtain as 10 mM solution in DMSO. The stock was diluted 1:5 to the top concentration of 2 mM in 100% DMSO. For IC50 determination, serial 1:3.16 dilutions were prepared in 100% DMSO by diluting 20 μL into 43.5 μL of DMSO for 8 concentrations. Each prepared DMSO solution were further diluted 1:500 in the cell culture media to obtain the 2× dosing solutions. The final concentrations of tested compounds in the cell culture media ranged from 0.632 nM to 2000 nM.
MV4-11 cells were cultured in IMDM with 10% FBS and 1× Penicillin-Streptomycin at 5% CO2 and 37° C. A cell suspension was prepared containing 15,000 cells/ml in the culture medium and 100 μL of this suspension was added per well to a 96-well cell culture plate. Then, 100 μL of 2× dosing media containing test compounds were added bringing the total volume to 200 μL. These cells were cultured for 72 hours at 37° C. and 5% CO2 in a humidified incubator.
After 72 hours, the cultured cells were mixed and 100p L was transferred to a 96-well black plate. Cell Titer Glo (100 μl) was then added to this plate. The plate was mixed with shaking for 15 mins at RT, the luminescence was then measured using Tecan Spark 20M spectrophotometer. Cell Viability (%) was determined by RLU of test/RLU average vehicle control*100 and % max inhibition was determined by 100−(% cell viability remaining at the top concentration of compound).

SMILES | IC50 [nM]
CC(C)N(CC(F)F)C(=O)c1cc(F)ccc1Oc1cncnc1N1CC2(CCN(C[C@@H]3CC[C@@H](NS(=O)(=O)NCC(F)F)CO3)CC2)C1 [Example 235, N-(2,2-Difluoroethyl)-2-((4-(7-(((2S,5R)-5-((N-(2,2-difluoroethyl)sulfamoyl)amino)tetrahydro-2H-pyran-2-yl)methyl)-2,7-diazaspiro[3.5]nonan-2-yl)pyrimidin-5-yl)oxy)-5-fluoro-N-isopropylbenzamide] | < 100

Same assay, conditions: Homo sapiens; MV4;11 leukemia cell line, 72 hours; read-out: MV4; 11 IC50

SMILES | IC50 [nM]
C[C@@H]1COC[C@H](C)N1C(=O)c1cc(F)ccc1Oc1cncnc1N1CC2(CCN(C[C@@H]3CC[C@@H](NS(=O)(=O)c4ccccc4)CO3)CC2)C1 [Example 130, N-((3R,6S)-6-((2-(5-(2-((3S,5R)-3,5-Dimethylmorpholine-4-carbonyl)-4-fluorophenoxy)pyrimidin-4-yl)-2,7-diazaspiro[3.5]nonan-7-yl)methyl)tetrahydro-2H-pyran-3-yl)benzenesulfonamide] | < 100
CC(C)N(C(=O)c1cc(F)ccc1Oc1cncnc1N1CC2(CCN(C[C@@H]3CC[C@@H](NS(=O)(=O)N(C)C)CO3)CC2)C1)[C@H]1CCOC1 [Example 177, 2-((4-(7-(((2S,5R)-5-((N,N-Dimethylsulfamoyl)amino)tetrahydro-2H-pyran-2-yl)methyl)-2,7-diazaspiro[3.5]nonan-2-yl)pyrimidin-5-yl)oxy)-5-fluoro-N-isopropyl-N-((S)-tetrahydrofuran-3-yl)benzamide] | < 100
CCNS(=O)(=O)N[C@@H]1CC[C@@H](CN2CCC3(CC2)CN(c2ncncc2Oc2ccc(F)cc2C(=O)N2[C@H](C)COC[C@H]2C)C3)OC1 [Example 125, {[(3R,6S)-6-{[2-(5-{2-[(3R,5R)-3,5-Dimethylmorpholine-4-carbonyl]-4-fluorophenoxy}pyrimidin-4-yl)-2,7-diazaspiro[3.5]nonan-7-yl]methyl}oxan-3-yl]sulfamoyl}(ethyl)amine] | < 100
CC(C)N(C(=O)c1cc(F)ccc1Oc1cncnc1N1CC2(CCN(C[C@@H]3CC[C@@H](NS(=O)(=O)C(C)C)CO3)CC2)C1)C1CC(F)(F)C1 [Example 110, N-(3,3-Difluorocyclobutyl)-5-fluoro-N-isopropyl-2-((4-(7-(((2S,5R)-5-((1-methylethyl)sulfonamido)tetrahydro-2H-pyran-2-yl)methyl)-2,7-diazaspiro[3.5]nonan-2-yl)pyrimidin-5-yl)oxy)benzamide] | < 100
CC(C)N(C(=O)c1cc(F)ccc1Oc1cncnc1N1CC2(CCN(C[C@@H]3CC[C@@H](NS(=O)(=O)C4CC4)CO3)CC2)C1)C1CC1 [Example 21, 2-((4-(7-(((2S,5R)-5-(Cyclopropanesulfonamido)tetrahydro-2H-pyran-2-yl)methyl)-2,7-diazaspiro[3.5]nonan-2-yl)pyrimidin-5-yl)oxy)-N-cyclopropyl-5-fluoro-N-isopropylbenzamide] | < 100
COCCN(C(=O)c1cc(F)ccc1Oc1cncnc1N1CC2(CCN(C[C@@H]3CC[C@@H](NS(=O)(=O)c4ccccc4)CO3)CC2)C1)C(C)C [Example 254, 5-Fluoro-N-isopropyl-N-(2-methoxyethyl)-2-((4-(7-(((2S,5R)-5-(phenylsulfonamido)tetrahydro-2H-pyran-2-yl)methyl)-2,7-diazaspiro[3.5]nonan-2-yl)pyrimidin-5-yl)oxy)benzamide] | < 100
CC(C)N(CC(F)F)C(=O)c1cc(F)ccc1Oc1cncnc1N1CC2(CCN(C[C@@H]3CC[C@@H](NS(=O)(=O)N(C)CCCO)CO3)CC2)C1 [Example 214, N-(2,2-difluoroethyl)-5-fluoro-2-((4-(7-(((2S,5R)-5-((N-(3-hydroxypropyl)-N-methylsulfamoyl)amino)tetrahydro-2H-pyran-2-yl)methyl)-2,7-diazaspiro[3.5]nonan-2-yl)pyrimidin-5-yl)oxy)-N-isopropylbenzamide] | < 100
CCN(CC)S(=O)(=O)N[C@@H]1CC[C@@H](CN2CCC3(CC2)CN(c2ncncc2Oc2ccc(F)cc2C(=O)N(C(C)C)C2CC(F)(F)C2)C3)OC1 [Example 114, 2-((4-(7-(((2S,5R)-5-((N,N-Diethylsulfamoyl)amino)tetrahydro-2H-pyran-2-yl)methyl)-2,7-diazaspiro[3.5]nonan-2-yl)pyrimidin-5-yl)oxy)-N-(3,3-difluorocyclobutyl)-5-fluoro-N-isopropylbenzamide] | < 100
Cc1nc(S(=O)(=O)N[C@@H]2CC[C@@H](CN3CCC4(CC3)CN(c3ncncc3Oc3ccc(F)cc3C(=O)N3[C@H](C)COC[C@H]3C)C4)OC2)cs1 [Example 122, N-((3R,6S)-6-((2-(5-(2-((3R,5R)-3,5-Dimethylmorpholine-4-carbonyl)-4-fluorophenoxy)pyrimidin-4-yl)-2,7-diazaspiro[3.5]nonan-7-yl)methyl)tetrahydro-2H-pyran-3-yl)-2-methylthiazole-4-sulfonamide] | < 100
CC(C)N(CC#N)C(=O)c1cc(F)ccc1Oc1cncnc1N1CC2(CCN(C[C@@H]3CC[C@@H](NS(=O)(=O)N(C)C)CO3)CC2)C1 [Example 181, N-(Cyanomethyl)-2-((4-(7-(((2S,5R)-5-((N,N-dimethylsulfamoyl)amino)tetrahydro-2H-pyran-2-yl)methyl)-2,7-diazaspiro[3.5]nonan-2-yl)pyrimidin-5-yl)oxy)-5-fluoro-N-isopropylbenzamide] | < 100
CC(C)N(C(=O)c1cc(F)ccc1Oc1cncnc1N1CC2(CCN(C[C@@H]3CC[C@@H](NS(=O)(=O)N(C)C(C)C)CO3)CC2)C1)C(C)C [Example 89, 5-Fluoro-N,N-diisopropyl-2-((4-(7-(((2S,5R)-5-((N-isopropyl-N-methylsulfamoyl)amino)tetrahydro-2H-pyran-2-yl)methyl)-2,7-diazaspiro[3.5]nonan-2-yl)pyrimidin-5-yl)oxy)benzamide] | < 100
CC(C)N(C(=O)c1cc(F)ccc1Oc1cncnc1N1CC2(CCN(C[C@@H]3CC[C@@H](NS(C)(=O)=O)CO3)CC2)C1)[C@H]1CCOC1 [Example 173, 5-Fluoro-N-isopropyl-2-((4-(7-(((2S,5R)-5-(methylsulfonamido)tetrahydro-2H-pyran-2-yl)methyl)-2,7-diazaspiro[3.5]nonan-2-yl)pyrimidin-5-yl)oxy)-N-((S)-tetrahydrofuran-3-yl)benzamide] | < 100
C[C@@H]1COC[C@@H](C)N1C(=O)c1cc(F)ccc1Oc1cncnc1N1CC2(CCN(C[C@@H]3CC[C@@H](NS(=O)(=O)NCC4CC4)CO3)CC2)C1 [Example 158, (Cyclopropylmethyl)({[(3R,6S)-6-{[2-(5-{2-[(3R,5R)-3,5-dimethylmorpholine-4-carbonyl]-4-fluorophenoxy}pyrimidin-4-yl)-2,7-diazaspiro[3.5]nonan-7-yl]methyl}oxan-3-yl]sulfamoyl})amine] | < 100
CC(C)N(C(=O)c1cc(F)ccc1Oc1cncnc1N1CC2(CCN(C[C@@H]3CC[C@@H](NC(=O)OC(C)(C)C)CO3)CC2)C1)C1CC1 [Example 17, tert-Butyl ((3R,6S)-6-((2-(5-(2-(cyclopropyl(isopropyl)carbamoyl)-4-fluorophenoxy)pyrimidin-4-yl)-2,7-diazaspiro[3.5]nonan-7-yl)methyl)tetrahydro-2H-pyran-3-yl)carbamate] | < 100
CC(C)N(CC#N)C(=O)c1cc(F)ccc1Oc1cncnc1N1CC2(CCN(C[C@@H]3CC[C@@H](NS(=O)(=O)N4CCC4)CO3)CC2)C1 [Example 182, 2-((4-(7-(((2S,5R)-5-(Azetidine-1-sulfonamido)tetrahydro-2H-pyran-2-yl)methyl)-2,7-diazaspiro[3.5]nonan-2-yl)pyrimidin-5-yl)oxy)-N-(cyanomethyl)-5-fluoro-N-isopropylbenzamide] | < 100
CC(C)N(C(=O)c1cc(F)ccc1Oc1cncnc1N1CC2(CCN(C[C@@H]3CC[C@@H](NS(=O)(=O)C4CC4)CO3)CC2)C1)[C@H]1CCOC1 [Example 176, 2-((4-(7-(((2S,5R)-5-(Cyclopropanesulfonamido)tetrahydro-2H-pyran-2-yl)methyl)-2,7-diazaspiro[3.5]nonan-2-yl)pyrimidin-5-yl)oxy)-5-fluoro-N-isopropyl-N-((S)-tetrahydrofuran-3-yl)benzamide] | < 100
CC(C)N(C(=O)c1cc(F)ccc1Oc1cncnc1N1CC2(CCN(C[C@@H]3CC[C@@H](NS(=O)(=O)C4CC4)CO3)CC2)C1)C1COC1 [Example 247, 2-((4-(7-(((2S,5R)-5-(Cyclopropanesulfonamido)tetrahydro-2H-pyran-2-yl)methyl)-2,7-diazaspiro[3.5]nonan-2-yl)pyrimidin-5-yl)oxy)-5-fluoro-N-isopropyl-N-(oxetan-3-yl)benzamide] | < 100
CCS(=O)(=O)N[C@@H]1CC[C@@H](CN2CCC3(CC2)CN(c2ncncc2Oc2ccc(F)cc2C(=O)N(C(C)C)C2CC(F)(F)C2)C3)OC1 [Example 44, N-(3,3-Difluorocyclobutyl)-2-((4-(7-(((2S,5R)-5-(ethylsulfonamido)tetrahydro-2H-pyran-2-yl)methyl)-2,7-diazaspiro[3.5]nonan-2-yl)pyrimidin-5-yl)oxy)-5-fluoro-N-isopropylbenzamide] | < 100
